According to patent publication US20240390503A1, “Green Tea-based Nanocomplexes for Eye Disease” (Agency for Science, Technology and Research, priority 2021, published 2024):
Entries after “also recorded” stand apart in the source; their conditions may differ. Like-named read-outs stand apart in the source and are kept apart here.

What was measured:
Vldlr^−/− mice = test: In vivo anti-angiogenesis effect on Vldlr−/− mice (relative number of retinal lesions, fluorescein angiography)
[1] = tested on: Human umbilical vein endothelial cells (HUVECs); test: Inhibitory effects on VEGF-activated endothelial cell proliferation (AlamarBlue); format: cell-based; conditions: HUVEC, 3 days, read-out: IC50, anti-proliferative effect
Method: Human umbilical vein endothelial cells (HUVECs) were obtained from Lonza Biologics Tuas Pte Ltd (Singapore), and cultured in the endothelial cell basal medium (EBM-2) supplemented with EGM-2 SingleQuots (Lonza Biologics Tuas Pte Ltd, Singapore). HUVECs were seeded in 96-well plates (5×10^3 cells/well, n=5) and cultured for one day for cell attachment.
After 3 days, the cell viability was measured by using AlamarBlue® reagent (Life Technologies, USA) according to the manufacturer's protocol. Briefly, the medium was replaced by phenol red-free media containing 10% AlamarBlue® reagent. After incubation for 4 hours at 37° C., fluorescence intensity (λex=549 nm and λem=587 nm) was measured by a microplate reader (Tecan Group Ltd., Switzerland). Results were expressed as a percentage of viable cells relative to untreated cells.
The CI values of HA-EGCG and drug combination were calculated with the following equation using the CompuSyn software: […]

AMD patients [2] = conditions: cited from earlier work
AMD patients [3] = conditions: oral, cited from earlier work

For `CCN(CC)CCNC(=O)c1c(C)[nH]c(/C=C2\C(=O)Nc3ccc(F)cc32)c1C` [SU, Sunitinib malate], which “progression of retinal lesions” value (Vldlr^−/− mice; topical, SU 0.50 mg/mL, 10 μL, 3×/day, 28 days) is on record?
Its value is “no efficacy”.

And the IC50 ([1]; Homo sapiens, 72 h, VEGF-activated conditions)?
Its IC50 is 4.32 µM.

And the IC50 ([1]; Homo sapiens, 72 h, normal growth conditions)?
The IC50 was 6.59 µM.

What does the source list for Ranibizumab?
AMD patients with improved visual acuity (AMD patients [2]; monthly IVT injection, 0.5 mg): 33.8%; incidence of increased intraocular pressure (AMD patients [2]; two year treatment): 24%; incidence of intraocular inflammation (AMD patients [2]; two year treatment): 18%

What does the source list for Aflibercept?
CNV inhibitory effect (Vldlr^−/− mice; IVT, 2.0 μg/0.5 μL, 1× at day 0): observed only in the early stages of treatment and diminished over time; also recorded: effective only in the first 7 days; retinal lesion development (Vldlr^−/− mice; topical, AF 0.2 mg/mL or equivalent HA-EGCG/chitosan, 10 μL, 3×/day, 31 days): failed to suppress the lesion progression; IC50 ([1]; VEGF-activated conditions): > 0.21 µM

Which results are given for `Cc1[nH]c(/C=C2\C(=O)Nc3ccc(F)cc32)c(C)c1C(=O)N[C@H]1CCN(C(=O)N(C)C)C1` [Vorolanib]?
AMD patients with improved visual acuity (AMD patients [3]; phase 1, completed 24 weeks treatment): 24 out of 25; participants who discontinued due to severe systemic adverse effects (AMD patients [3]; phase 1): 17%; visual acuity compared to placebo (AMD patients [3]; phase 2, at 52 weeks): did not improve visual acuity
